These results are taken from BindingDB's records for doi:10.1074/jbc.M113.457119 (Institut National De Recherche Agronomique (Inra)-Vetagro …, 2013).

Holding throughout (assay): VKOR Activity Assay
Common to all, as to details: pH 7.4; 37 °C

Experiment [1] addresses T1, Vitamin K epoxide reductase complex subunit 1-like protein 1 (Homo sapiens, UniProt Q8N0U8).
T1 sequence (Q8N0U8 whole entry): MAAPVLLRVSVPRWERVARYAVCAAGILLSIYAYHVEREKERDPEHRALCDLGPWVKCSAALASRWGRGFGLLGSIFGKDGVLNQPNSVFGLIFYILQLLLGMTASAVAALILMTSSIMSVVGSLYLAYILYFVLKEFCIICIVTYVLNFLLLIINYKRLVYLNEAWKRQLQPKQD
The protocol:
(§1) Briefly, standard reactions were performed in 200 mM Hepes buffer, pH 7.4, containing 150 mM KCl, 1 mM dithiothreitol, 0.25 to 2 g liter-1 of total proteins containing membrane VKORC1. The reaction was started by the addition of vit K1>O solution in 1% Triton X-100 and incubated at 37 °C for 30 min. […] After incubation at 37 °C for 30 min, the reaction was stopped by adding 4 ml of iced 1:1 isopropyl alcohol/hexane solution. After centrifugation at 5000 x g for 10 min, the hexane layer was removed and driedunder nitrogen. The dry residue was immediately dissolved in 0.2 ml of isopropyl alcohol, and the reaction product was analyzed by liquid chromatography-mass spectrometry.

Experiment [2] addresses T2, Vitamin K epoxide reductase complex subunit 1-like protein 1 (Rattus norvegicus, UniProt Q6TEK3).
T2 sequence (Q6TEK3 whole entry): T1 sequence (Q8N0U8 whole entry) with I112V, M119V, I143V, V144T, Q175E
As to the method: as §1

The target in experiment [3] is T3, Vitamin K epoxide reductase complex subunit 1 (Rattus norvegicus, UniProt Q6TEK4).
T3 sequence (Q6TEK4 whole entry): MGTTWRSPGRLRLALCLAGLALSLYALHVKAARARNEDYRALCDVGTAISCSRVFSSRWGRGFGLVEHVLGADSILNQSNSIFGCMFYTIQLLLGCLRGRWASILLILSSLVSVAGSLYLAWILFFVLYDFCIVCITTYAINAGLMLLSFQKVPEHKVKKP
As to the method:
as §1

Substitutions are numbered along the chain they refer to.

For the compound `CC(=O)C[C@H](c1ccccc1)c1c(O)c2ccccc2oc1=O` [2-hydroxy-3-(3-oxo-1-phenylbutyl)-4H-chromen-4-one], the values for the Ki in experiment [1], in experiment [2] and in experiment [3] were 52 µM, 32.6 µM and 0.6 µM, respectively.

As a reminder, the Ki is a dissociation constant, usually derived from enzyme kinetics or from competition with a known ligand. A higher Ki goes with lower affinity.
